18 molecules from US10172868B2, “Substituted quinazolines for inhibiting kinase activity” (NeuPharma, Inc., priority 2013, dated 2019) can be followed below.

One test has as its target EGFR (ErbB1) T790M L858R (Homo sapiens (Human), UniProt P00533, L858R/T790M). Kind of test: Z'-LYTE kinase inhibition assay, EGFR L858R/T790M. Format: biochemical. To be noted: for inhibition at 0.0137 µM: read-out: % inhibition against EGFR L858R/T790M (Compound at 0.0137 μM). As to the method:
Inhibitory activities of compounds against BTK, EGFR and EGFR mutants (EGFR L858R, EGFR T790M, EGFR L858R/T790M), FGFR1, FGFR2, JAK2, JAK3 and KDR were measured by Invitrogen using Z'-LYTE® Method as briefly described in the following. Test Compounds are screened in 1% DMSO (final) in the well. For 10 point titrations, 3-fold serial dilutions are conducted from the starting concentration. All ATP Solutions are diluted to a 4× working concentration in Kinase Buffer (50 mM HEPES pH 7.5, 0.01% BRIJ-35, 10 mM MgCl2, 1 mM EGTA). Peptide/Kinase Mixtures are diluted to a 2× working concentration in the appropriate Kinase Buffers as described below. (iv) Peptide/Kinase Mixtures for Measurement of EGFR (ErbB1) T790M L858R: The 2×EGFR (ErbB1) […] mixture is prepared in 50 mM HEPES pH 6.5, 0.01% BRIJ-35, 10 mM MgCl2, 1 mM EGTA, 0.02% NaN3. […] After the 1 hour Kinase Reaction incubation, 5 μL of a 1:64 dilution of Development Reagent B is added. Reaction starts by 30-second shaking of mixture consisting of 2.5 μL 4× test compound, […] 2× kinase reaction mixture and 2.5 μL 4×ATP Solution on Bar-coded Corning, low volume NBS, black 384-well plate (Corning Cat. #3676). Then the mixture is incubated for 60-minute at room temperature for the kinase reaction, followed by addition of 5 μL of a 1:1024 dilution of development reagent A and 30-second plate shake. The mixture is then incubated for another 60-minute at room temperature for development reaction. Finally fluorescence is read by plate reader. To determine IC50 of a compound against EGFR, EGFR mutant and other kinases, a series of concentrations of the compound were tested for the inhibition.

A further test has as its system H1975 cells. The experiment in a line: Inhibition of cancer cell growth, MTT assay, H1975. To be noted: Homo sapiens, NCI-H1975, 72 h, read-out: IC50 in H1975 cells.
The target in a further test is EGFR (ErbB1) (Homo sapiens (Human), UniProt P00533). The experiment in a line: Z'-LYTE kinase inhibition assay, EGFR. In kind it is biochemical. To be noted: read-out: % inhibition against EGFR (Compound at 0.041 μM). As to the method: Inhibitory activities of compounds against BTK, EGFR and EGFR mutants (EGFR L858R, EGFR T790M, EGFR L858R/T790M), FGFR1, FGFR2, JAK2, JAK3 and KDR were measured by Invitrogen using Z'-LYTE® Method as briefly described in the following. Test Compounds are screened in 1% DMSO (final) in the well. For 10 point titrations, 3-fold serial dilutions are conducted from the starting concentration. All ATP Solutions are diluted to a 4× working concentration in Kinase Buffer (50 mM HEPES pH 7.5, 0.01% BRIJ-35, 10 mM MgCl2, 1 mM EGTA). Peptide/Kinase Mixtures are diluted to a 2× working concentration in the appropriate Kinase Buffers as described below. (i) Peptide/Kinase Mixtures for Measurement of EGFR (ErbB1): The 2×EGFR (ErbB1)/[…] mixture is prepared in 50 mM HEPES pH 7.5, 0.01% BRIJ-35, 10 mM MgCl2. 4 mM MnCl2, 1 mM EGTA, 2 mM DTT. The final 10 μL Kinase Reaction consists of 1.1-5.25 ng EGFR (ErbB1) and 2 μM […] in 50 mM HEPES pH 7.5, 0.01% BRIJ-35, 10 mM MgCl2, 2 mM MnCl2. 1 mM EGTA, 1 mM DTT. After the 1 hour Kinase Reaction incubation, 5 μL of a 1:64 dilution of Development Reagent B is added. Reaction starts by 30-second shaking of mixture consisting of 2.5 μL 4× test compound, […] 2× kinase reaction mixture and 2.5 μL 4×ATP Solution on Bar-coded Corning, low volume NBS, black 384-well plate (Corning Cat. #3676). Then the mixture is incubated for 60-minute at room temperature for the kinase reaction, followed by addition of 5 μL of a 1:1024 dilution of development reagent A and 30-second plate shake. The mixture is then incubated for another 60-minute at room temperature for development reaction. Finally fluorescence is read by plate reader. To determine IC50 of a compound against EGFR, EGFR mutant and other kinases, a series of concentrations of the compound were tested for the inhibition.
Sequence of EGFR (ErbB1) (P00533 25-1210): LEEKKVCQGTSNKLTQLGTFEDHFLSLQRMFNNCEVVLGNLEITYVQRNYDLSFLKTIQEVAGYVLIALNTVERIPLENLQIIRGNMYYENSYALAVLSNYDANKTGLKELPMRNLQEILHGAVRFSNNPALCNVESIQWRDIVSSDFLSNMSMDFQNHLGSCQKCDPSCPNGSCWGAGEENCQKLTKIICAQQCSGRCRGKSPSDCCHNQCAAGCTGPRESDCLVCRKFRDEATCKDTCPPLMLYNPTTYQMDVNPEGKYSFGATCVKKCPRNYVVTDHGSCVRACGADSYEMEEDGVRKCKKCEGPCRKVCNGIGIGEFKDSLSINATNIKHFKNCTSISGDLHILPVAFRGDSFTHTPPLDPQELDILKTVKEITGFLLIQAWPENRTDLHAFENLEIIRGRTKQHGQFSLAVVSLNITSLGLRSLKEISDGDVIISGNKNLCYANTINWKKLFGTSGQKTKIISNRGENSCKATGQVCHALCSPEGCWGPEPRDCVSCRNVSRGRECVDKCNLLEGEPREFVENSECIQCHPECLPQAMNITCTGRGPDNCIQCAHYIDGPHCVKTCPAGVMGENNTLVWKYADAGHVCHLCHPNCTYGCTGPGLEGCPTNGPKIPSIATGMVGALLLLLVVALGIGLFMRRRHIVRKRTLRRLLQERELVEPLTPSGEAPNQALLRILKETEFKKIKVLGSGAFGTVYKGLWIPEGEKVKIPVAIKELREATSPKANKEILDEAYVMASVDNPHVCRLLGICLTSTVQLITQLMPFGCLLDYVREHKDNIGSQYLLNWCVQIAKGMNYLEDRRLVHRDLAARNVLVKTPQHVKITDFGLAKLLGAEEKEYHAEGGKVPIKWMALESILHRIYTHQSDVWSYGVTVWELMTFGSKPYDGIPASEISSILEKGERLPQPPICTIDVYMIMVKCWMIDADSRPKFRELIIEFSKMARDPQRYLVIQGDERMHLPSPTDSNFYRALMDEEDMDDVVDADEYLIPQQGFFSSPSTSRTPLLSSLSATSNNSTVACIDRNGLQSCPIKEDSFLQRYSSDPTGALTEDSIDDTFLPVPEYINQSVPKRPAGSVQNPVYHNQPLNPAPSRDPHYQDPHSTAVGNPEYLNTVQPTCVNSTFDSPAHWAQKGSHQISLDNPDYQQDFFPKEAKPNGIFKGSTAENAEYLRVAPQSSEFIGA

Sequence of EGFR (ErbB1) T790M L858R (P00533 25-1210 T790M/L858R): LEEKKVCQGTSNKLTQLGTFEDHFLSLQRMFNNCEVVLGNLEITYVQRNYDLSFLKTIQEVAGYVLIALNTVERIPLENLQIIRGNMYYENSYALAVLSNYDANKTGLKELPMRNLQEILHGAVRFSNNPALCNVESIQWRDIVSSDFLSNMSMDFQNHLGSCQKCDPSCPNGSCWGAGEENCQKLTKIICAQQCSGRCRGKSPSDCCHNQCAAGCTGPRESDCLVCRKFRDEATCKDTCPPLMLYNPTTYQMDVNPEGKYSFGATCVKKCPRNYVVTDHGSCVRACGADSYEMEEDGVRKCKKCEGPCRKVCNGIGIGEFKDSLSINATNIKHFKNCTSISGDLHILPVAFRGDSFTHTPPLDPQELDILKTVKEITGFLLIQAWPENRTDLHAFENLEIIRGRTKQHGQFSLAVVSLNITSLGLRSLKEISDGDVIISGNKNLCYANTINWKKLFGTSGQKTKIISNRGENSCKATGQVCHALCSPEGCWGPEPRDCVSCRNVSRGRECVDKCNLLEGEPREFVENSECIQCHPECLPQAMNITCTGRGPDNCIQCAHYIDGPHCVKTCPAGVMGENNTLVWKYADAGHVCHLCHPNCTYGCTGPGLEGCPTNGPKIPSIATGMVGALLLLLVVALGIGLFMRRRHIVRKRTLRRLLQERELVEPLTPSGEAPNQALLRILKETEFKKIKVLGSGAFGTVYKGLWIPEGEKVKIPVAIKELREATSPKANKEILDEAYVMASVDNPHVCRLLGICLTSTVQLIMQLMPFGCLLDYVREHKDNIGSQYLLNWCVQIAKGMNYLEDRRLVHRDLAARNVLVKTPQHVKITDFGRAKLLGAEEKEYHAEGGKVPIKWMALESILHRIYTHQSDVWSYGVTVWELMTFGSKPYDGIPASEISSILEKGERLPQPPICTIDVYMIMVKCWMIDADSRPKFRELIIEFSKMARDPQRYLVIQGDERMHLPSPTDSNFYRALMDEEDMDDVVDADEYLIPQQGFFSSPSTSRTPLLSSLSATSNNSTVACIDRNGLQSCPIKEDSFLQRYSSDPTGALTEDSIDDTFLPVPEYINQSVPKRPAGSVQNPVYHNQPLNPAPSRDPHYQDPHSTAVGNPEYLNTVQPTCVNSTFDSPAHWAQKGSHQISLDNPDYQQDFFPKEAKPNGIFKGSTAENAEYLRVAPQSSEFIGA

As to `CCC(=O)Nc1cccc(-c2c(C)ccc3cnc(Nc4ccc(N5CCN(C)CC5)cc4)nc23)c1` [Example C042, N-(3-(7-methyl-2-((4-(4-methylpiperazin-1-yl)phenyl)amino)quinazolin-8-yl)phenyl)propionamide], on EGFR (ErbB1) T790M L858R, the inhibition at 0.0137 µM is less than 50%. In the test on H1975 cells, the IC50 was greater than 500 nM. Further, the inhibition at 0.041 µM on EGFR (ErbB1) was greater than 50%.

In the case of `CC(=O)N1CCN(c2ccc(Nc3ncc4cccc(-c5cccc(NC(=O)/C=C/CN(C)C)c5)c4n3)cc2)CC1` [Example C050, (E)-N-(3-(2-((4-(4-acetylpiperazin-1-yl)phenyl)amino)quinazolin-8-yl)phenyl)-4-(dimethylamino)but-2-enamide], the inhibition at 0.0137 µM at EGFR (ErbB1) T790M L858R is greater than 50%. In addition, the IC50 in the test with H1975 cells is greater than 500 nM. Moreover, the inhibition at 0.041 µM at EGFR (ErbB1) was less than 50%.

`CN(C)C/C=C/C(=O)Nc1cccc(-c2cccc3cnc(Nc4ccc(N5CCN(C)CC5)cc4)nc23)c1` [Example C052, (E)-4-(dimethylamino)-N-(3-(2-((4-(4-methylpiperazin-1-yl)phenyl)amino)quinazolin-8-yl)phenyl)but-2-enamide]: the inhibition at 0.0137 µM at EGFR (ErbB1) T790M L858R was greater than 50%. The IC50 with H1975 cells lay within 100 to 500 nM. Besides, the inhibition at 0.041 µM on EGFR (ErbB1) was less than 50%.

Consider `CN(C)C/C=C/C(=O)Nc1cccc(-c2cccc3cnc(Nc4ccc(N5CCN(C)CC5)cc4)nc23)c1F` [Example C062, (E)-4-(dimethylamino)-N-(2-fluoro-3-(2-((4-(4-methylpiperazin-1-yl)phenyl)amino)quinazolin-8-yl)phenyl)but-2-enamide], for which the inhibition at 0.0137 µM at EGFR (ErbB1) T790M L858R is greater than 50%. Besides, in the test on H1975 cells, the IC50 fell in the range of 100 to 500 nM. The inhibition at 0.041 µM at EGFR (ErbB1) was greater than 50%.

Consider `C=CC(=O)Nc1cccc(-c2cccc3cnc(Nc4ccc(N(C)CCF)cc4)nc23)c1` [Example C064, N-(3-(2-((4-((2-fluoroethyl)(methyl)amino)phenyl)amino)quinazolin-8-yl)phenyl)acrylamide], for which the inhibition at 0.0137 µM at EGFR (ErbB1) T790M L858R is less than 50%. In addition, in the test on H1975 cells, the IC50 is greater than 500 nM. Moreover, the inhibition at 0.041 µM on EGFR (ErbB1) is less than 50%.

Regarding `C=CC(=O)Nc1cccc(-c2cccc3cnc(Nc4ccc(N(C)CCF)cc4)nc23)c1F` [Example C065, N-(2-fluoro-3-(2-((4-((2-fluoroethyl)(methyl)amino)phenyl)amino)quinazolin-8-yl)phenyl)acrylamide], the inhibition at 0.0137 µM at EGFR (ErbB1) T790M L858R was less than 50%. Besides, the IC50 in the test on H1975 cells lay in the range of 100 to 500 nM. The inhibition at 0.041 µM on EGFR (ErbB1) was less than 50%.

On to `C=CC(=O)Nc1cccc(-c2cccc3cnc(Nc4ccc(NCCO)cc4)nc23)c1` [Example C066, N-(3-(2-((4-((2-hydroxyethyl)amino)phenyl)amino)quinazolin-8-yl)phenyl)acrylamide], for which the inhibition at 0.0137 µM on EGFR (ErbB1) T790M L858R is less than 50%. Besides, in the test with H1975 cells, the IC50 is greater than 500 nM. The inhibition at 0.041 µM on EGFR (ErbB1) was less than 50%.

For the molecule `C=CC(=O)Nc1ccc(F)c(-c2cccc3cnc(Nc4ccc(N5CCN(C)CC5)cc4)nc23)c1` [Example C067, N-(4-fluoro-3-(2-((4-(4-methylpiperazin-1-yl)phenyl)amino)quinazolin-8-yl)phenyl)acrylamide], the inhibition at 0.0137 µM on EGFR (ErbB1) T790M L858R was greater than 50%. The IC50 at EGFR (ErbB1) T790M L858R (read-out: IC50 against EGFR L858R/T790M) and in the test on H1975 cells was less than 100 nM in each case. Also, the inhibition at 0.041 µM at EGFR (ErbB1) was greater than 50%.

Turning to `C=CC(=O)N1CCN(c2cccc3cnc(Nc4ccc(N5CCN(C)CC5)cc4)nc23)CC1` [Example C070, 1-(4-(2-((4-(4-methylpiperazin-1-yl)phenyl)amino)quinazolin-8-yl)piperazin-1-yl)prop-2-en-1-one], on EGFR (ErbB1) T790M L858R, the inhibition at 0.0137 µM was less than 50%. Besides, the IC50 in the test on H1975 cells is greater than 500 nM. Besides, the inhibition at 0.041 µM on EGFR (ErbB1) is less than 50%.

Take `C=CC(=O)N1CCC=C(c2cccc3cnc(Nc4ccc(N5CCN(C)CC5)cc4)nc23)C1` [Example C071, 1-(3-(2-((4-(4-methylpiperazin-1-yl)phenyl)amino)quinazolin-8-yl)-5,6-dihydropyridin-1(2H)-yl)prop-2-en-1-one]: at EGFR (ErbB1) T790M L858R, the inhibition at 0.0137 µM is less than 50%. The IC50 in the test with H1975 cells was greater than 500 nM. Besides, the inhibition at 0.041 µM at EGFR (ErbB1) was less than 50%.

For `C=CC(=O)Nc1ccc(Cl)c(-c2cccc3cnc(Nc4ccc(N5CCN(C)CC5)cc4)nc23)c1` [Example C073, N-(4-chloro-3-(2-((4-(4-methylpiperazin-1-yl)phenyl)amino)quinazolin-8-yl)phenyl)acrylamide], the inhibition at 0.0137 µM on EGFR (ErbB1) T790M L858R was greater than 50%. In addition, in the test with H1975 cells, the IC50 was in the range of 100 to 500 nM. Moreover, the inhibition at 0.041 µM at EGFR (ErbB1) is less than 50%.

For the molecule `C=CC(=O)Nc1cccc(-c2cccc3cnc(Nc4ccc(N5CCN(C(=O)OC)CC5)cc4)nc23)c1` [Example C076, methyl 4-(4-((8-(3-acrylamidophenyl)quinazolin-2-yl)amino)phenyl)piperazine-1-carboxylate], at EGFR (ErbB1) T790M L858R, the inhibition at 0.0137 µM was less than 50%. Also, the IC50 with H1975 cells is greater than 500 nM. In addition, the inhibition at 0.041 µM at EGFR (ErbB1) was less than 50%.

With `C=CC(=O)Nc1cccc(-c2cccc3cnc(Nc4ccc(N5CCN(CCO)CC5)c(F)c4)nc23)c1` [Example C142, N-(3-(2-((3-fluoro-4-(4-(2-hydroxyethyl)piperazin-1-yl)phenyl)amino)quinazolin-8-yl)phenyl)acrylamide], in the test on H1975 cells, the IC50 is less than 100 nM.

Turning to `C=CC(=O)Nc1cccc(-c2cccc3cnc(Nc4ccc(OC5CCN(CCF)CC5)cc4F)nc23)c1` [Example C157, N-(3-(2-((2-fluoro-4-((1-(2-fluoroethyl)piperidin-4-yl)oxy)phenyl)amino)quinazolin-8-yl)phenyl)acrylamide], the inhibition at 0.0137 µM at EGFR (ErbB1) T790M L858R is less than 50%. Moreover, the IC50 in the test with H1975 cells was greater than 500 nM.

For `C=CC(=O)Nc1cccc(-c2cccc3cnc(Nc4ccc(-n5cccn5)cc4)nc23)c1` [Example C158, N-(3-(2-((4-(1H-pyrazol-1-yl)phenyl)amino)quinazolin-8-yl)phenyl)acrylamide], the inhibition at 0.0137 µM on EGFR (ErbB1) T790M L858R is less than 50%. Besides, the IC50 with H1975 cells lay within 100 to 500 nM.

Consider `C=CC(=O)Nc1cccc(-c2cccc3cnc(Nc4ccc(-c5cn[nH]c5)cc4)nc23)c1` [Example C159, N-(3-(2-((4-(1H-pyrazol-4-yl)phenyl)amino)quinazolin-8-yl)phenyl)acrylamide], for which the inhibition at 0.0137 µM on EGFR (ErbB1) T790M L858R is less than 50%. For the same molecule, in the test with H1975 cells, the IC50 is greater than 500 nM.

Consider `C=CC(=O)Nc1cccc(-c2cccc3cnc(Nc4cc(F)c(N5CCN(C)CC5)cc4F)nc23)c1` [Example C160, N-(3-(2-((2,5-difluoro-4-(4-methylpiperazin-1-yl)phenyl)amino)quinazolin-8-yl)phenyl)acrylamide], for which the inhibition at 0.0137 µM on EGFR (ErbB1) T790M L858R was less than 50%. Besides, the IC50 with H1975 cells fell in the range of 100 to 500 nM.

Take `C=CC(=O)Nc1cccc(-c2cccc3cnc(Nc4cc(F)c(N5CCN(CC(C)(C)O)CC5)cc4F)nc23)c1` [Example C163, N-(3-(2-((2,5-difluoro-4-(4-(2-hydroxy-2-methylpropyl)piperazin-1-yl)phenyl)amino)quinazolin-8-yl)phenyl)acrylamide]: the IC50 with H1975 cells lay within 100 to 500 nM.
